Reference: article PMC5207512, “Inhibition of Helicobacter pylori and Its Associated Urease by Palmatine: Investigation on the Potential Mechanism” (PLoS ONE, 2017)
Where “and” joins values, the source holds several entries; their conditions need not be identical. Equal values may be shown once. Read-outs that look alike come from different tables or passages of the source.

Key:
[1] = molecular target: T1, jack bean urease (JBU) (Canavalia ensiformis, UniProt P07374); test: biochemical; type: biochemical; details: thiols 1.25 mM, Pal 0.5 mM, 20+20 min; for Residual urease activity (percent of control): Fig 5B JBU; for activity at 1250 µM: read-out: Residual urease activity (percent of control), Fig 5B JBU
T1 construct: Urease from jack bean (Canavalia ensiformis, JBU); purchased Sigma-Aldrich (St Louis, MO, USA) type III (catalogue number not given)
Method: (§1) The reaction mixture consisted of 0.25 mg/mL HPU or JBU, 0.5 mM Pal (for both HPU and JBU), and 1.25 mM thiols (DTT, GSH, or L-cys) in 20 mM HEPES buffer (pH 7.5). The components of the incubation mixture were mixed according to three procedures: (1) Urease was added to the mixture after a 20-min co-incubation of Pal with thiol. (2) Pal was added to the mixture after a 20-min co-incubation of urease with thiol. (3) Thiols were added to the mixture after a 20-min co-incubation of urease with Pal. The incubation mixture containing all components was incubated for further 20 min and the activity of urease was determined. The experiments were triply performed.

[2] = molecular target: T2, H. pylori urease (HPU) (Helicobacter pylori, UniProt P69996); test: biochemical; type: biochemical; details: thiols 1.25 mM, Pal 0.5 mM, 20+20 min; for Residual urease activity (percent of control): Fig 5A HPU; for activity at 1250 µM: read-out: Residual urease activity (percent of control), Fig 5A HPU
T2 construct: HPU was prepared as previously described; made in house
Method: as §1

[3] = molecular target: T1, jack bean urease (JBU); test: biochemical; type: biochemical; details: for Urease activity: Fig 6B JBU
Method: (§2) The reactivation of Pal-inactivated urease was investigated by DTT application. The preincubation mixture consisted of 0.25 mg/mL HPU or JBU and 0.5 mM Pal in 20 mM HEPES buffer (pH 7.5). Then the mixture was further incubated with 1.25 mM DTT after 20 min. The enzymatic activity of urease was determined before and after the addition of DTT. After a while, aliquots were withdrawn and the urease residual activity was determined. The experiments were repeated three times.

[4] = molecular target: T2, H. pylori urease (HPU); test: biochemical; type: biochemical; details: for Urease activity: Fig 6A HPU
Method: as §2

[5] = molecular target: T1, jack bean urease (JBU); test: biochemical; details: Pal 0.5 mM, thiols 1.25 mM, replicates; for Residual urease activity (percent of control): Fig 4B JBU; for activity at 1250 µM: read-out: Residual urease activity (percent of control), Fig 4B JBU
Method: (§3) For the protection with thiols-containing compounds, the mixture consisting of 0.25 mg/mL urease (HPU or JBU), 0.5 mM Pal (for both HPU and JBU) and 1.25 mM thiols (DTT, GSH and L-cys) was incubated for 5, 10, 20, and 40 min at 37°C, respectively. The control sample instead of the protectors contained a proper volume of respective buffer.

[6] = molecular target: T2, H. pylori urease (HPU); test: biochemical; details: Pal 0.5 mM, thiols 1.25 mM, replicates; for Residual urease activity (percent of control): Fig 4A HPU; for activity at 1250 µM: read-out: Residual urease activity (percent of control), Fig 4A HPU
Method: as §3

[7] = molecular target: T1, jack bean urease (JBU); test: Urease inhibition test (modified Berthelot method); type: biochemical; details: JBU 0.25 mg/mL; 20 min preincubation 37°C, pH 7.5; read-out: IC50
Method: (§4) HPU was prepared as previously described. The standard urease assay mixture included 150 mM urea in 20 mM HEPES buffer (pH 7.5). After addition of small aliquots of enzyme-containing solution of urease, the assay ran for 20 min. The enzymatic activity was evaluated spectrophotometrically by detecting the ammonia concentration at 595 nm according to the modified Berthelot (phenol-hypochlorite) method. Urease activity was estimated with JBU as a standard, the specific activity of HPU was determined to be 17.0 U/mg. One unit of urease activity was defined as 1 μmol of ammonia released per min at 25°C. The amount of protein was determined by commercial Bradford Protein Assay Kit with BSA as a standard. The amount of ammonia released was decided from a standard curve. The activity of uninhibited urease was defined as the control activity of 100%.
(§5) Reaction mixtures comprising 0.25 mg/mL HPU or JBU and different concentrations of Pal or AHA at the volume ratio of 1:1, were incubated at 37°C in 20 mM HEPES buffer (pH 7.5) in the absence of urea. The reactions were initiated by mixing the urease and the inhibitor. The preincubation mixture was withdrawn at 20 min and immediately transferred into the standard assay mixtures for urease residual activity determination. Inhibition rate (%) was calculated following the formula: I % = (1-activity with inhibitors/activity without inhibitors) × 100%. The IC50 was expressed as the concentration of inhibitor that decreased urease activity by 50% and calculated by plotting the percent of inhibition. The experiments were triply performed.

[8] = molecular target: T2, H. pylori urease (HPU); test: Urease inhibition test (modified Berthelot method); type: biochemical; details: HPU 0.25 mg/mL; 20 min preincubation 37°C, pH 7.5; read-out: IC50
Method: as §4, §5

[9] = 1.25 mM DTT, control of reactivation assay
[10] = incubation time 5 min, Pal 0.5 mM, DTT 1.25 mM
[11] = incubation time 10 min, Pal 0.5 mM, DTT 1.25 mM
[12] = incubation time 15 min, Pal 0.5 mM, DTT 1.25 mM
[13] = incubation time 20 min, Pal 0.5 mM, DTT 1.25 mM
[14] = incubation time 120 min, DTT added post 20 min

T2 sequence (P14916 whole entry): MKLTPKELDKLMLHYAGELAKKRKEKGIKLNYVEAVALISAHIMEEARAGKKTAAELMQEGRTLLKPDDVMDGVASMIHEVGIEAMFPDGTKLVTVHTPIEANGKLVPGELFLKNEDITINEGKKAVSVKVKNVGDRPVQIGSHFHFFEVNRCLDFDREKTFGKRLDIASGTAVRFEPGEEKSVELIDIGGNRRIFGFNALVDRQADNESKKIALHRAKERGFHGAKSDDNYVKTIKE
T2 sequence (P69996 whole entry): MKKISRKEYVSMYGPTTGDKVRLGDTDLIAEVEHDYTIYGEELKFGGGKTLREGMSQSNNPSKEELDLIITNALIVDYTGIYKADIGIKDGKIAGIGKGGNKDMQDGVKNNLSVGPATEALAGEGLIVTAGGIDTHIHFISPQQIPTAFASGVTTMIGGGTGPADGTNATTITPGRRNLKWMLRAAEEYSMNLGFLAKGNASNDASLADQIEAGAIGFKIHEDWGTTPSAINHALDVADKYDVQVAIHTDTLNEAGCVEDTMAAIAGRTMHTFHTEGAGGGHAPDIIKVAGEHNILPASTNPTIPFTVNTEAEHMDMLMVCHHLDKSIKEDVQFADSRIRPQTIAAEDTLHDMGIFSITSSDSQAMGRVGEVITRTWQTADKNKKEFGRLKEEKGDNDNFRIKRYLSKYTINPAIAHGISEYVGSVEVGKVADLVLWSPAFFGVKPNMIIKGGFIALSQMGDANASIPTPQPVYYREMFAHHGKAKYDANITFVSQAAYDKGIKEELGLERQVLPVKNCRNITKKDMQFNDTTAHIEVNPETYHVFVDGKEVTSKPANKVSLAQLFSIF
T1 sequence (P07374 whole entry, looked up): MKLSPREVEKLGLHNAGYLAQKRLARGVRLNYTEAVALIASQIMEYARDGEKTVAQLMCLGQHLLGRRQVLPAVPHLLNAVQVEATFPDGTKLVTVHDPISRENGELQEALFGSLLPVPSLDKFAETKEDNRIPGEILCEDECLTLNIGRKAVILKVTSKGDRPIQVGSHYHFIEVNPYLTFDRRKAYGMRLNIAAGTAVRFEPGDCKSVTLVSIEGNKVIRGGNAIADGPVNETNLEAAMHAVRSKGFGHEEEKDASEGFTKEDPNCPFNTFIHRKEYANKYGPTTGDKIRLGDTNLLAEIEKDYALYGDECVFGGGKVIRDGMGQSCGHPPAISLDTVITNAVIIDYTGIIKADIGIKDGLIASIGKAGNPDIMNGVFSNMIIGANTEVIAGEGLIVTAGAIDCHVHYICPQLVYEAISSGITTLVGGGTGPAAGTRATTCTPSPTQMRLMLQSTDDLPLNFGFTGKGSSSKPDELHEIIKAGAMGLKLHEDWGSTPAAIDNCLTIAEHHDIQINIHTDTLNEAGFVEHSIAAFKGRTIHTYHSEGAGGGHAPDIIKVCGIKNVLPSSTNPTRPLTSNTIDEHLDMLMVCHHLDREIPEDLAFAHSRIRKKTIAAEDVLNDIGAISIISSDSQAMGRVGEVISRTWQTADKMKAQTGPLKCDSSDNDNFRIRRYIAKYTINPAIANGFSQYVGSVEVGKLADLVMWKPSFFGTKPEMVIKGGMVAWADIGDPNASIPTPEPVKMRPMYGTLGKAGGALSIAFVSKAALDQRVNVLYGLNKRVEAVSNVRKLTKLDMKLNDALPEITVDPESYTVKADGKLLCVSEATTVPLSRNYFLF

Question: How did the “Residual urease activity (percent of control)” value ([1]; order (Protector+Pal)+urease) turn out when `O[C@@H](CS)[C@@H](O)CS` (racemic) [DTT, dithiothreithol] was run?
Answer: 164.505% and 163.42% and 167.948%

Question: And the “Residual urease activity (percent of control)” value ([1]; order (urease+Pal)+Protector)?
Answer: 156.562% and 141.035% and 115.717%

Question: And the “Residual urease activity (percent of control)” value ([1]; order (urease+Protector)+Pal)?
Answer: 175.198% and 170.348% and 183.958%

Question: What about the “Residual urease activity (percent of control)” value ([2]; order (Protector+Pal)+urease) of the same compound?
Answer: 93.1647% and 102.135% and 96.7756%

Question: And the “Residual urease activity (percent of control)” value ([2]; order (urease+Pal)+Protector)?
Answer: 108.215% and 111.632% and 112.117%

Question: What about the “Residual urease activity (percent of control)” value ([2]; order (urease+Protector)+Pal) of the same compound?
Answer: 93.9563% and 102.92% and 98.1268%

Question: What about the “JBU activity with DTT without Pal” value [3, 9] of the same compound?
Answer: ca. 100%

Question: And the Urease activity [3, 10]?
Answer: 121.742% and 114.981% and 108.343%

Question: And the Urease activity [3, 11]?
Answer: 110.236% and 112.928% and 115.246%

Question: And the Urease activity [3, 12]?
Answer: 113.236% and 116.183% and 119.514%

Question: What about the Urease activity [3, 13] of the same compound?
Answer: 121.141% and 121.265% and 120.209%

Question: And the Urease activity ([3]; incubation time 25 min)?
Answer: 120.019% and 120.291% and 121.459%

Question: And the Urease activity ([3]; incubation time 40 min)?
Answer: 107.983% and 105.801% and 103.225%

Question: And the Urease activity ([3]; incubation time 60 min)?
Answer: 111.088% and 107.798% and 104.326%

Question: And the Urease activity ([3]; incubation time 90 min)?
Answer: 107.125% and 104.437% and 101.122%

Question: And the Urease activity [3, 14]?
Answer: 112.893% and 110.524% and 108.243%

Question: What about the “HPU activity with DTT without Pal” value [4, 9] of the same compound?
Answer: ca. 100%

Question: What about the Urease activity [4, 10] of the same compound?
Answer: 95.491% and 88.7241% and 81.9292%

Question: What about the Urease activity [4, 11] of the same compound?
Answer: 99.0165% and 99.0712% and 98.1423%

Question: What about the Urease activity [4, 12] of the same compound?
Answer: 99.1346% and 97.2572% and 95.4326%

Question: And the Urease activity [4, 13]?
Answer: 97.9325% and 92.9515% and 87.6438%

Question: And the Urease activity ([4]; incubation time 40 min, DTT added post 20 min)?
Answer: 92.9813% and 91.5048% and 89.9013%

Question: And the Urease activity ([4]; incubation time 60 min)?
Answer: 98.0126% and 92.5129% and 87.7924%

Question: And the Urease activity ([4]; incubation time 90 min)?
Answer: 91.4647% and 89.1159% and 85.7645%

Question: What about the Urease activity [4, 14] of the same compound?
Answer: 96.0166% and 88.9974% and 82.2782%

Question: What about the “Residual urease activity (percent of control)” value ([5]; 5 min incubation) of the same compound?
Answer: 93.6533% and 90.8565% and 95.5784%

Question: And the “Residual urease activity (percent of control)” value ([5]; 10 min incubation)?
Answer: 106.756% and 109.689% and 104.897%

Question: And the “Residual urease activity (percent of control)” value ([5]; 20 min incubation)?
Answer: 115.579% and 114.01% and 114.79%

Question: What about the “Residual urease activity (percent of control)” value ([5]; 40 min incubation) of the same compound?
Answer: 142.945% and 126.676% and 135.643%

Question: And the “Residual urease activity (percent of control)” value ([6]; 5 min incubation)?
Answer: 81.4793% and 82.3893% and 84.6876%

Question: What about the “Residual urease activity (percent of control)” value ([6]; 10 min incubation) of the same compound?
Answer: 90.4823% and 88.7843% and 92.6863%

Question: And the “Residual urease activity (percent of control)” value ([6]; 20 min incubation)?
Answer: 93.6879% and 92.2701% and 94.7893%

Question: And the “Residual urease activity (percent of control)” value ([6]; 40 min incubation)?
Answer: 98.9725% and 95.7934% and 96.4654%

Question: How did the IC50 [7] turn out when `CC(=O)NO` [AHA, Acetohydroxamic acid] was run?
Answer: 20 µM

Question: And the IC50 [8]?
Answer: 70 ± 10 µM

Question: Which results are given for `N[C@@H](CCC(=O)N[C@@H](CS)C(=O)NCC(=O)O)C(=O)O` [GSH, glutathione]?
Answer: activity at 1250 µM ([1]; order (Protector+Pal)+urease): 139%; activity at 1250 µM ([1]; order (urease+Pal)+Protector): 140%; activity at 1250 µM ([2]; order (Protector+Pal)+urease): 90.2%; activity at 1250 µM ([2]; order (urease+Pal)+Protector): 85.2%; activity at 1250 µM ([2]; order (urease+Protector)+Pal): 86.2%; activity at 1250 µM ([5]; 5 min, 5 min incubation): 129%; activity at 1250 µM ([5]; 10 min, 10 min incubation): 130%; activity at 1250 µM ([5]; 20 min, 20 min incubation): 129%; activity at 1250 µM ([5]; 40 min, 40 min incubation): 146%; activity at 1250 µM ([6]; 5 min, 5 min incubation): 72.8%; activity at 1250 µM ([6]; 10 min, 10 min incubation): 90.4%; activity at 1250 µM ([6]; 20 min, 20 min incubation): 94.7%; activity at 1250 µM ([6]; 40 min, 40 min incubation): 97.5%

Question: Which activity at 1250 µM ([1]; order (Protector+Pal)+urease) does the source give for `N[C@@H](CS)C(=O)O` [L-Cys, L-cysteine] here?
Answer: 147%

Question: What about the activity at 1250 µM ([1]; order (urease+Protector)+Pal) of the same compound?
Answer: 146%

Question: What about the activity at 1250 µM ([2]; order (Protector+Pal)+urease) of the same compound?
Answer: 83.2%

Question: What about the activity at 1250 µM ([2]; order (urease+Pal)+Protector) of the same compound?
Answer: 82.4%

Question: And the activity at 1250 µM ([2]; order (urease+Protector)+Pal)?
Answer: 105%

Question: And the activity at 1250 µM ([5]; 5 min, 5 min incubation)?
Answer: 102%

Question: And the activity at 1250 µM ([5]; 10 min, 10 min incubation)?
Answer: 109%

Question: What about the activity at 1250 µM ([5]; 20 min, 20 min incubation) of the same compound?
Answer: 117%

Question: And the activity at 1250 µM ([5]; 40 min, 40 min incubation)?
Answer: 150%

Question: What about the activity at 1250 µM ([6]; 5 min, 5 min incubation) of the same compound?
Answer: 118%

Question: And the activity at 1250 µM ([6]; 10 min, 10 min incubation)?
Answer: 107%

Question: And the activity at 1250 µM ([6]; 20 min, 20 min incubation)?
Answer: 109%

Question: And the activity at 1250 µM ([6]; 40 min, 40 min incubation)?
Answer: 112%
